Experimental data from US20230416329A1, “A PEPTIDE WITH DISULFIDE BONDS AND INHIBITORY ACTIVITY AGAINST SERINE PROTEASES, DERIVED HYBRID PEPTIDES THEREOF, AND USES THEREOF” (INSTITUTE OF MATERIA MEDICA , CHINESE ACADEMY OF MEDICAL …, priority 2020, published 2023).

Assays:
DPP-IV = DPP-IV (Homo sapiens, UniProt P27487); assay: Tolerance of GLP-1 and its analogues to DPP-IV (RP-HPLC remaining peak area); format: in vitro ADME; details: peptide 25 μM, DPP-IV 0.5 ng/μL, 37° C.; for Remaining peak area (%)/DPP-IV: 0.0 h; for remaining at 0.5 h, 25 μM / remaining at 2 h, 25 μM / remaining at 4 h, 25 μM / remaining at 8 h, 25 μM / remaining at 12 h, 25 μM: isolated DPP-IV enzyme in buffer, pH 8
Chain of DPP-IV (P27487 whole entry, species assumed): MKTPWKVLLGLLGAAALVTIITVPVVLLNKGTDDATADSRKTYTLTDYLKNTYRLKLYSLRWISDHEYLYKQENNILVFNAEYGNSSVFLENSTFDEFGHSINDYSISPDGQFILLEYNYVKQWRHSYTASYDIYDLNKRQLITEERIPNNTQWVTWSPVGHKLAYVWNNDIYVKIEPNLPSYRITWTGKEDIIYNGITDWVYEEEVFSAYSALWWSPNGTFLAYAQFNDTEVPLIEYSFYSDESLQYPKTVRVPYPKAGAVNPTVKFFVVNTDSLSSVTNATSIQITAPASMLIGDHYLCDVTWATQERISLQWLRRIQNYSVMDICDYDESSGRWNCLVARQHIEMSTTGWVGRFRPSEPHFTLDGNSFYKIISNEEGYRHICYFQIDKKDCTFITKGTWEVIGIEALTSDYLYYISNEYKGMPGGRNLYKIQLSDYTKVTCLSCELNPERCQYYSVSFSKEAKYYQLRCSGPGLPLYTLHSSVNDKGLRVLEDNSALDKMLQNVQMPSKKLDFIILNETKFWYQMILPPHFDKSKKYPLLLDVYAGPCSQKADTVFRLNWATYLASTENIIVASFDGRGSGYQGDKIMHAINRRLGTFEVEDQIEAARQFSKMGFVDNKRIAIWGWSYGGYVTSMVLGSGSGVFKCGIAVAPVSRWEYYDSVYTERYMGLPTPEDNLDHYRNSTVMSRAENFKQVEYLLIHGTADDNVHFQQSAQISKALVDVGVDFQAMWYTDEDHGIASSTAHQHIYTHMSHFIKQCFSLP
Procedure: (§1) Mix by centrifugation at 8000 rpm for 30 seconds.
(2) Arrange a certain volume of 0.005 μg/μL DPP-IV solution in another sterile EP.

elastase = elastase (Sus scrofa, UniProt P00772); assay: in vitro; details: isolated enzyme elastase; for remaining at 0.025 h, 60 μM / remaining at 0.05 h, 60 μM / remaining at 0.075 h, 60 μM / remaining at 0.1 h, 60 μM / remaining at 0.15 h, 60 μM / remaining at 0.25 h, 60 μM / remaining at 0.5 h, 60 μM / remaining at 1 h, 60 μM: pH 8, Remaining peak area (%)/elastase
Chain of elastase (P00772 27-266): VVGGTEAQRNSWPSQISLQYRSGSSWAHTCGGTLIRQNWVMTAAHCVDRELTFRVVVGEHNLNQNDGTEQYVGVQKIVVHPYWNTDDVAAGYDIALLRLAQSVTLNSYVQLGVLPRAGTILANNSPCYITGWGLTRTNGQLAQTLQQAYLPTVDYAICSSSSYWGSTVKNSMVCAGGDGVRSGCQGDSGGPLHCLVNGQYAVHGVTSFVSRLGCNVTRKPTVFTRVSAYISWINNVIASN
Procedure: FIG. 19. […] At different time point, 25 μL aliquots was taken out, and 10% (v/v) TFA was added to terminate the reaction.
as §1
Arrange a certain volume of 0.5 μg/μL elastase solution in another sterile EP. Incubate the EP tubes containing peptides and enzymes at 37° C. for 5 min, and then add 4.5 μL of elastase solution to each EP tube containing peptides and mix well. Start timing and remove 25 μL of reaction solution at 1.5, 3.0, 4.5, 6.0, 9.0, 15.0, 30.0, and 60.0 min later, respectively. Add 3.75 μL of 10% TFA to terminate the reaction and mix well by centrifugation at 8000 rpm for 30 seconds.
Referring to the experimental method in Example 5, in vitro stability of salmon Calcitonin analogs with oral administration activity to the enzymatic hydrolysis by trypsin, chymotrypsin and elastase were performed.
Referring to the experimental method in Example 5, in vitro stability of IL-17A inhibitory peptides towards the enzymatic hydrolysis by trypsin, chymotrypsin and elastase were performed.

[1] = Stability of GLP-1 and its analogues in human serum; details: 25% (v/v) human serum; for Remaining peak area (%)/human serum: 0.0 h, peptide 0.03 mM, 37° C.; for remaining at 0.5 h, 0.03 mM / remaining at 2 h, 0.03 mM / remaining at 4 h, 0.03 mM / remaining at 8 h, 0.03 mM / remaining at 12 h, 0.03 mM: human, pH 7

Row | SMILES | Remaining peak area (%)/DPP-IV (DPP-IV) [%] | remaining at 0.5 h, 25 μM (DPP-IV) [%] | remaining at 2 h, 25 μM (DPP-IV) [%] | remaining at 4 h, 25 μM (DPP-IV) [%] | remaining at 8 h, 25 μM (DPP-IV) [%] | remaining at 12 h, 25 μM (DPP-IV) [%] | remaining at 0.025 h, 60 μM (elastase) [%] | remaining at 0.05 h, 60 μM (elastase) [%] | remaining at 0.075 h, 60 μM (elastase) [%] | remaining at 0.1 h, 60 μM (elastase) [%] | remaining at 0.15 h, 60 μM (elastase) [%] | remaining at 0.25 h, 60 μM (elastase) [%] | remaining at 0.5 h, 60 μM (elastase) [%] | remaining at 1 h, 60 μM (elastase) [%] | Remaining peak area (%)/human serum [1] [%] | serum stability (in words) [1] | remaining at 0.5 h, 0.03 mM [1] [%] | remaining at 2 h, 0.03 mM [1] [%] | remaining at 4 h, 0.03 mM [1] [%] | remaining at 8 h, 0.03 mM [1] [%] | also measured
1 | CC[C@H](C)[C@H](NC(=O)[C@H](Cc1ccccc1)NC(=O)[C@H](CCC(=O)O)NC(=O)[C@H](CCCCN)NC(=O)[C@H](C)NC(=O)[C@H](C)NC(=O)[C@H](CCC(N)=O)NC(=O)CNC(=O)[C@H](CCC(=O)O)NC(=O)[C@H](CC(C)C)NC(=O)[C@H](Cc1ccc(O)cc1)NC(=O)[C@H](CO)NC(=O)[C@H](CO)NC(=O)[C@@H](NC(=O)[C@H](CC(=O)O)NC(=O)[C@H](CO)NC(=O)[C@@H](NC(=O)[C@H](Cc1ccccc1)NC(=O)[C@@H](NC(=O)CNC(=O)[C@H](CCC(=O)O)NC(=O)[C@H](C)NC(=O)[C@H](Cc1c[nH]cn1)NC(=O)CNC(=O)CNC(=O)[C@@H](NC(=O)[C@@H]1CCCN1C(=O)[C@@H](NC(=O)CN)[C@@H](C)CC)[C@@H](C)CC)[C@@H](C)O)[C@@H](C)O)C(C)C)C(=O)N[C@@H](C)C(=O)N[C@@H](Cc1c[nH]c2ccccc12)C(=O)N[C@@H](CC(C)C)C(=O)N[C@H](C(=O)N[C@@H](CCCCN)C(=O)NCC(=O)N[C@@H](CCCNC(=N)N)C(=O)NCC(=O)NCC(=O)N[C@@H](CCCCN)C(=O)NCC(=O)N[C@@H](CC(C)C)C(=O)N[C@H]1CSSC[C@@H](C(=O)N[C@@H](Cc2ccc(O)cc2)C(=O)O)NC(=O)[C@H](CCC(N)=O)NC(=O)[C@@H]2CCCN2C(=O)[C@@H]2CCCN2C(=O)[C@H]([C@@H](C)CC)NC(=O)[C@H](CO)NC(=O)[C@H](C)NC(=O)[C@H]([C@@H](C)O)NC1=O)C(C)C [D-GLP-1-EC1] | 100.0 ± 0.0 | 82.5 ± 0.6 | 81.2 ± 3.9 | 84 ± 2.2 | 82.5 ± 1.6 | 83.5 ± 0.5 | 73.1 ± 5 | 73.8 ± 2.8 | 70.4 ± 2 | 68.6 ± 2.4 | 66.9 ± 3.9 | 62.1 ± 4.3 | 58.4 ± 4.6 | 44.5 ± 0.9 | 100.0 ± 0.0 | more stable in serum | 73.7 ± 3.7 | 63.5 ± 4.8 | 46.6 ± 6.4 | 42.4 ± 3.5 | remaining at 12 h, 0.03 mM [1]: 27.4 ± 0.3%
2 | CC[C@H](C)[C@H](NC(=O)[C@H](Cc1ccccc1)NC(=O)[C@H](CCC(=O)O)NC(=O)[C@H](CCCCN)NC(=O)[C@H](C)NC(=O)[C@H](C)NC(=O)[C@H](CCC(N)=O)NC(=O)CNC(=O)[C@H](CCC(=O)O)NC(=O)[C@H](CC(C)C)NC(=O)[C@H](Cc1ccc(O)cc1)NC(=O)[C@H](CO)NC(=O)[C@H](CO)NC(=O)[C@@H](NC(=O)[C@H](CC(=O)O)NC(=O)[C@H](CO)NC(=O)[C@@H](NC(=O)[C@H](Cc1ccccc1)NC(=O)[C@@H](NC(=O)CNC(=O)[C@H](CCC(=O)O)NC(=O)[C@H](C)NC(=O)[C@H](Cc1c[nH]cn1)NC(=O)CNC(=O)CNC(=O)[C@@H](NC(=O)[C@@H]1CCCN1C(=O)[C@@H](NC(=O)CN)[C@@H](C)CC)[C@@H](C)CC)[C@@H](C)O)[C@@H](C)O)C(C)C)C(=O)N[C@@H](C)C(=O)N[C@@H](Cc1c[nH]c2ccccc12)C(=O)N[C@@H](CC(C)C)C(=O)N[C@H](C(=O)N[C@@H](CCCCN)C(=O)NCC(=O)N[C@@H](CCCNC(=N)N)C(=O)NCC(=O)NCC(=O)N[C@@H](CCCCN)C(=O)NCC(=O)N[C@@H](CC(C)C)C(=O)N[C@H]1CSSC[C@@H](C(=O)N[C@@H](CCC(N)=O)C(=O)O)NC(=O)[C@H]([C@@H](C)CC)NC(=O)[C@@H]2CCCN2C(=O)[C@@H]2CCCN2C(=O)[C@H]([C@@H](C)CC)NC(=O)[C@H](CO)NC(=O)[C@H](C)NC(=O)[C@H]([C@@H](C)O)NC1=O)C(C)C [D-GLP-1-EC12] | 100.0 ± 0.0 | 93.4 ± 0.8 | 92.3 ± 3 | 91.7 ± 0.6 | 93.3 ± 0.2 | 95.1 ± 1.4 | 93.2 ± 2.4 | 88.9 ± 1.6 | 83.3 ± 1 | 82.7 ± 4.6 | 79.8 ± 2.2 | 72.5 ± 1.6 | 66.1 ± 2.1 | 49.5 ± 1.1 | 100.0 ± 0.0 | more stable in serum | 86.9 ± 3.8 | 79.9 ± 6.2 | 73.9 ± 1.6 | 72.9 ± 8.2 | Remaining peak area (%)/elastase (elastase; 1 h, 60 μM, pH 8): about 45%; remaining at 12 h, 0.03 mM [1]: 53.5 ± 3.7%
